Measurements published in patent publication US20260248126A1, “BIOCIDE” (PURGOS APS, priority 2020, published 2026).
Where “and” joins values, the source holds several entries; their conditions need not be identical. Identical values can stand only once.

Experiments:
[1] = test system: Bacillus cereus ISI 842; experiment: Minimal inhibitory concentration (MIC), microtiter plate; format: cell-based
Protocol: (§1) For the tested substance. the stock solution was 10%. Minimum inhibitory concentrations (MICs) are defined as the lowest concentration of an antimicrobial that will inhibit the visible growth of a microorganism after a standardized incubation. In the present study, MIC assay was performed by pipetting robot. The principle is that an indicator microorganism at a defined cell density is cultured with a range of concentrations of the test compound, one concentration pr. well in a row on the microtiter plate. For bacteria and yeasts the minimal inhibitory concentration was detected as no increase of optical density (OD), for moulds microtiter plates were read visually. Each indicator organism is tested in duplicate and the MIC is calculated as the average of the two determinations. The tested concentrations of the antimicrobial substances were 2-fold dilutions from 5%. All indicator organisms (see Table 2.) were pre-cultivated in a suitable growth medium and diluted in the same medium to give a final concentration in the assay of ~1×10^3 cfu/ml. The microtiter plates were incubated under specific incubation conditions (see Table 3). [table]

[2] = test system: Debaryomyces hansenii ISI 12; experiment: as above; format: cell-based
Protocol: as §1

[3] = test system: Lactobacillus brevis ISI 2269; experiment: as above; format: cell-based
Protocol: as §1

[4] = test system: Leuconostoc mesenteroides ISI 504; experiment: as above; format: cell-based
Protocol: as §1

[5] = test system: Listeria monocytogenes ISI 22; experiment: as above; format: cell-based
Protocol: as §1

[6] = test system: Pseudomonas aeruginosa ISI 1462; experiment: as above; format: cell-based
Protocol: as §1

[7] = test system: Streptococcus termophilus ISI 1563; experiment: as above; format: cell-based
Protocol: as §1

[8] = test system: Aspergillus niger ISI 3; experiment: Minimal inhibitory concentration (MIC), microtiter plate read visually; format: cell-based
Protocol: as §1

[9] = test system: Aspergillus niger ISI 3; experiment: Minimum bactericidal concentration (MBC), outgrowth from MIC plates; format: cell-based
Description: (§2) Even when no growth is detectable in the MIC tests, it is possible that the microorganisms have survived the treatment i.e., they are not killed but just prevented from growing. In order to test for survivors, MBC plates were subsequently made from the MIC plates.

[10] = test system: Bacillus cereus ISI 842; experiment: as above; format: cell-based
Description: as §2

[11] = test system: Debaryomyces hansenii ISI 12; experiment: as above; format: cell-based
Description: as §2

[12] = test system: Lactobacillus brevis ISI 2269; experiment: as above; format: cell-based
Description: as §2

[13] = test system: Leuconostoc mesenteroides ISI 504; experiment: as above; format: cell-based
Description: as §2

[14] = test system: Listeria monocytogenes ISI 22; experiment: as above; format: cell-based
Description: as §2

[15] = test system: Pseudomonas aeruginosa ISI 1462; experiment: as above; format: cell-based
Description: as §2

[16] = test system: Streptococcus termophilus ISI 1563; experiment: as above; format: cell-based
Description: as §2

[17] = test system: Canidida albicans ISI 1226; experiment: as above; format: cell-based, Candida albicans
Description: as §2

[18] = test system: Pseudomonas aeruginosa, ATCC 10145; experiment: PT6 screening: microbial activity in pre-formulated acrylic paint (total ATP, aerobic and anaerobic growth on agar plate); format: cell-based
Protocol: The microbial activity in relation to in-can preservation of paint was tested using three methods: ATP measurement, Aerobic growth on agar plate and Anaerobic growth on agar plate in low-air conditions. In the tests concentrations of 1, 2 and 5% NBDA was tested. […] Furthermore, no significant dependence on concentration was shown in these specific tests. Specific about the ATP measurements: test and method developed by Luminultra. A sample is taken from the test paint at a given time and the total amount of ATP is measured. Total ATP amount are measured at Day 7 and 30. After every ATP measurement, streaking of test material on agar plates has been performed. Growth test in aerobic and anaerobic environment are running in 1 and 14 days, respectively. • Test organism: Pseudomonas aeruginosa, ATCC 10145 The screening has been continuously expanded so that there are individual start-ups of three different trials. See further information in the overview table, table VIII. Table VIII overview. Samples in test. Commercial biocide is Vinkocide CMIK®. Acrylic paint is standard EN 152 (modified without PT6 biocide). P. aeruginosa are inoculated in 200 μl concentration to paint sample size of 140 ml in a sterile “paint can-shape” container. […] “Anaerobic growth day 30” were inoculated on day 20 and measured on day 31.

[19] = test system: Coniophora puteana. BAM Ebw. 15; experiment: EN 113 test against wood destroying basidiomycetes (impregnated Scots pine sapwood); format: cell-based
[20] = test system: Gloeophyllum trabeum. BAM Ebw. 109; experiment: as above; format: cell-based
[21] = test system: Coriolus versicolor. CTB 863 A; experiment: EN 113 test against wood destroying basidiomycetes (impregnated beech); format: cell-based
[22] = 10% N-BDA in water; cited from earlier work

CCCCN(CCO)CCO [NBDA, N-butyldiethanolamine]
MIC (%) [1]: 1.25% | MIC (%) [2]: 1.25% | MIC (%) [3]: 0.16% | MIC (%) [4]: 0.31% | MIC (%) [5]: 1.25% | MIC (%) [6]: 0.63% | MIC (%) [7]: 0.63% | MIC (%) [8]: 0.63% | MBC(%) [9]: 0.63% | MBC(%) [10]: 1.25% | MBC(%) [11]: 2.5% | MBC(%) [12]: 0.31% | MBC(%) [13]: 0.63% | optical density (OD), MRC Data ([13]; NBDA 0.02%): 1.449 and 1.467 | optical density (OD), MRC Data ([13]; NBDA 0.04%): 1.449 and 1.468 | optical density (OD), MRC Data ([13]; NBDA 0.08%): 1.413 and 1.467 | optical density (OD), MRC Data ([13]; NBDA 0.16%): 1.337 and 1.425 | optical density (OD), MRC Data ([13]; NBDA 0.31%): 1.452 and 1.448 | optical density (OD), MRC Data ([13]; NBDA 1.25%): 0.075 | optical density (OD), MRC Data ([13]; NBDA 2.50%): 0.076 and 0.077 | optical density (OD), MRC Data ([13]; NBDA 5.00%): 0.066 and 0.067 | MBC(%) [14]: 2.5% | MBC(%) [15]: 1.25% | MBC(%) [16]: 1.25% | optical density (OD), MIC Data (second Streptococcus table) ([16]; NBDA 0.02%): 0.346 and 0.323 | optical density (OD), MIC Data (second Streptococcus table) ([16]; NBDA 0.04%): 0.307 and 0.283 | optical density (OD), MIC Data (second Streptococcus table) ([16]; NBDA 0.08%): 0.311 and 0.304 | optical density (OD), MIC Data (second Streptococcus table) ([16]; NBDA 0.16%): 0.251 and 0.232 | optical density (OD), MIC Data (second Streptococcus table) ([16]; NBDA 0.31%): 0.802 and 0.522 | optical density (OD), MIC Data (second Streptococcus table) ([16]; NBDA 0.63%): 0.277 and 0.427 | optical density (OD), MIC Data (second Streptococcus table) ([16]; NBDA 1.25%): 0.072 | optical density (OD), MIC Data (second Streptococcus table) ([16]; NBDA 2.50%): 0.070 and 0.068 | optical density (OD), MIC Data (second Streptococcus table) ([16]; NBDA 5.00%): 0.062 and 0.058 | MBC(%) [17]: 1.25% | anti-microbial potential in paint (ATP, aerobic and anaerobic growth) ([18]; 1, 2 and 5% NBDA in acrylic paint): all three concentrations reveal anti-microbial potentials | effect against aerobic bacteria, in-can preservation of paints ([18]; concentrations of 0.5%, 1%, 2%, and 5%): effective against aerobic bacteria such Gram-negative bacteria such as Pseudomonas aeruginosa | Toxic value, Sol. conc. [19]: >1.43 % w/w | Toxic value, Sol. conc. [20]: 1.01-1.43 % w/w | fungicide effect, preventing wood destruction ([20]; concentrations of 0.36%, 0.51%, 0.72%, 1.01% and 1.43%): effective as a fungicide for preventing wood destruction | Toxic value, Sol. conc. [21]: >2.20 % w/w | pH [22]: around 11.1
